In one assay the test system is ACE-II. On the set-up: method as in PMID 24131339. The conditions noted are these: negative control in studies on marine cryptides; ref [49]; read-out: IC50 for ACE-II inhibition; cited from earlier work.
The target of a further assay is T1, ACE-1 (Homo sapiens, UniProt P12821).
T1 construct: purchased Cambridge BioSciences (Cambridge, UK)
In kind it is biochemical.

T1 sequence (P12821 30-1306): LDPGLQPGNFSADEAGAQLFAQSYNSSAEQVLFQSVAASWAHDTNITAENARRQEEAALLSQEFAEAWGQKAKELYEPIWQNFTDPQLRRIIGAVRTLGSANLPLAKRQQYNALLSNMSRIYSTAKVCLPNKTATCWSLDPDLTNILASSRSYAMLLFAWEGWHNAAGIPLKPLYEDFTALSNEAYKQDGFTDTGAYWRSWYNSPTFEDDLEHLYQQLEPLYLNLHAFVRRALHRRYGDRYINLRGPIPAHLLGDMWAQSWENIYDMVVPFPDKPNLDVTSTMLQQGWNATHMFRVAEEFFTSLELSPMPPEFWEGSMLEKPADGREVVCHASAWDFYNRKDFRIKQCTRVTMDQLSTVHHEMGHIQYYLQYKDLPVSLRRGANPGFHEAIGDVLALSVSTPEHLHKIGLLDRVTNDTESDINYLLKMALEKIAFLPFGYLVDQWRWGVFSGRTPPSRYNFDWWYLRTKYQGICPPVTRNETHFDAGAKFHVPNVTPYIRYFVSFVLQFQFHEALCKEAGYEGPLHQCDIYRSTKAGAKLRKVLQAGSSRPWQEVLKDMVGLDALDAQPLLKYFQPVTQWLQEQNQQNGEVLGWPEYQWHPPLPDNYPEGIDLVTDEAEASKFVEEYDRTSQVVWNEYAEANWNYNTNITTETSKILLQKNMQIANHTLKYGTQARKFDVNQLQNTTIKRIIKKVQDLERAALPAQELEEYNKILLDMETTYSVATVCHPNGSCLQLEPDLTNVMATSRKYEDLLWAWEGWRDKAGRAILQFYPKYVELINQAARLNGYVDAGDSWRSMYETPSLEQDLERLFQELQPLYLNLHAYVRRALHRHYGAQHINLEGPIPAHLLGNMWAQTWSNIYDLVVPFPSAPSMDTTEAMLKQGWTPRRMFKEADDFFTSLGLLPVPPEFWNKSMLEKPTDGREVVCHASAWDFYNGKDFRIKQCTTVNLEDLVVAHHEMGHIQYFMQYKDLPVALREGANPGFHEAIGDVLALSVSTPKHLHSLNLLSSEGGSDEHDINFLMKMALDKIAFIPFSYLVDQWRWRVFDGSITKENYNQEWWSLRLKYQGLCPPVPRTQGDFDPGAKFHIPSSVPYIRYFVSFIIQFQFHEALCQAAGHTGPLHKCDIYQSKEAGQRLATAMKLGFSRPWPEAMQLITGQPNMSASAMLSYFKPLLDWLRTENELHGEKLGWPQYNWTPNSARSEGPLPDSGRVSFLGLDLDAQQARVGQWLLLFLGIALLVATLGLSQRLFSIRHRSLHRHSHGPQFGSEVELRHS

Take `CCCCc1nc(Cl)c(CO)n1Cc1ccc(-c2ccccc2-c2nn[nH]n2)cc1` [Losartan]: in the assay with ACE-II, the half-inhibitory concentration (IC50) (commonly the midpoint of a concentration-inhibition curve) is 17.1 to 146 µM. For the molecule YIHNNPAKGGLF, the ACE-1 inhibition on ACE-1 is 91%.

These data come from article PMC9967564, “Identification of Bioactive Peptides from a Laminaria digitata Protein Hydrolysate Using In Silico and In Vitro Methods to Identify Angiotensin-1-Converting Enzyme (ACE-1) Inhibitory Peptides” (Marine Drugs, 2023).
